Measurements as given in US10933134B2, “Combination therapies for treatment of cancer” (priority 2017, dated 2021).
Non-standard residues stand in square brackets, D forms with d. Residues, ends and D or L forms follow the SMILES beside them. *: point of attachment. dPhe(4-NHCONH2) = NC(=O)Nc1ccc(C[C@@H](N)C(=O)O)cc1; Dihydroorotyl(S) = O=C1C[C@@H](C(=O)*)NC(=O)N1; dPhe(4-Cl) = N[C@H](Cc1ccc(Cl)cc1)C(=O)O; Phe(4-NH2) = Nc1ccc(C[C@H](N)C(=O)O)cc1; d2Nal = N[C@H](Cc1ccc2ccccc2c1)C(=O)O; Lys(iPr) = CC(C)NCCCC[C@H](N)C(=O)O; d3Pal = N[C@H](Cc1cccnc1)C(=O)O

Columns and labels:
total PSA (tPSA) = assay: Serum total PSA in mice bearing LNCaP-AR tumors; type: in vivo; settings: one, three, or seven days post-WST11 VTP (FIG. 5A)
Protocol: This assay measures free PSA and complexed PSA in an equimolar fashion [Ulmert et al., 2012; Mitrunen et al., 1995], and the cross-reactivity of PSA-ACT for free PSA is less than 0.2% [Pettersson et al., 1995]. The lower limits of detection are 0.1 ng/mL for both total PSA and free PSA. For detection, the 1235 automatic immunoassay system from Perkin-Elmer Life Sciences (Waltham, Mass.) was used.
(vii) Statistical analysis: Two-way ANOVA test using GraphPad Prism (GraphPad Software, La Jolla, Calif.) was used for therapeutic efficacy in affecting tumor growth, and One-way ANOVA for PSA and a Mann-Whitney test for CD31, Ki67 or TUNEL staining quantification. Differences with p values<0.05 were considered statistically significant.
To verify that AR activity was inhibited by the treatments, the levels of total PSA (tPSA) in serum of mice bearing LNCaP-AR tumors were measured. Serum tPSA values were determined in separate cohorts of mice at one, three, or seven days post-WST11 VTP (four, six or ten days post-degarelix).

low-risk, localized PCa = settings: cited from earlier work
LNCaP-AR tumors = assay: Histology and immunohistochemistry of treated tumors (TUNEL, AR, Ki67); type: in vivo, mice; settings: for TUNEL staining (cell death): tumors on days three and seven post-VTP (FIG. 5B)
Protocol: (§1) (v) Histology and immunohistochemistry: All tumor specimens were fixed in 10% buffered formalin (Fisher Scientific, Pittsburgh, Pa.), processed routinely, embedded in paraffin, sectioned at 5-micron thickness, and stained with hematoxylin-eosin (H&E). Immunohistochemistry (IHC) of tumors was performed on 5 micron formalin-fixed paraffin embedded (FFPE) section following heat induced epitope retrieval (HIER) in a buffer at pH 9.0. AR staining with anti-AR antibody (at 0.66 μg/ml, Abcam, Cambridge, Mass.) and TUNEL staining for cell death with terminal deoxynucleotidyl transferase dUTP nick-end labeling (Roche Diagnostics, Indianapolis, Ind.) was performed using Discovery XT processor (Ventana Medical Systems, Inc., Tucson, Ariz.) at the Molecular Cytology core facility. IHC staining for CD31 and Ki67 markers was performed on FFPE sections at the Laboratory of Comparative Pathology on a Leica Bond RX automated stainer (Leica Biosystems, Buffalo Grove, Ill.). […] For quantification of CD31, Ki67 and TUNEL staining, whole slide digital images were generated on a scanner (Pannoramic 250 Flash III, 3DHistech, 20×/0.8NA objective, Budapest, Hungary) at a resolution of 0.2431 μm per pixel. Staining quantification was performed with QuPath 0.1.2 software (Centre for Cancer Research & Cell Biology, Queen's University Belfast, UK). […] For CD31 and TUNEL, the positive area, defined as the ratio of DAB stained pixels to total ROI area, was measured using the positive pixel count algorithm. For Ki67, the ratio (percentage) of cells with positive nuclear staining to total cell number was measured with the positive cell detection algorithm. […]
(§2) (vii) Statistical analysis: Two-way ANOVA test using GraphPad Prism (GraphPad Software, La Jolla, Calif.) was used for therapeutic efficacy in affecting tumor growth, and One-way ANOVA for PSA and a Mann-Whitney test for CD31, Ki67 or TUNEL staining quantification. […]

[1] = system: LNCaP-AR xenograft tumors; assay: GSEA transcriptome analysis of LNCaP-AR xenografts following VTP; type: in vivo, SCID mice
Protocol: (vi) GSEA for transcriptome analysis of LNCaP-AR xenografts following VTP treatment: LNCaP/AR xenografts were established in intact SCID mice by injecting 2 million cells as described previously [Chen et al., 2004] and, once established, were treated with VTP at 9 mg/kg WST11 followed by 753 nm illumination at 100 mW/cm^2 laser fluence. Tumors were collected at 3, 6, or 24 hours, 1 week and 8.5 weeks post VTP and RNA was isolated following the standard protocol using TRIzol (Fisher Scientific). Expression profiling was performed using Illumina HT-12 Expression BeadChip array and the data was analyzed using Partek Genomics Suite (Partek Inc., St. Louis, Mo.). The microarray data then underwent secondary analysis by GSEA [Subramanian et al., 2005] using gene sets from the Hallmark and C2, Canonical Pathways collections (Molecular Signature Databases v6.0 (MSigDB); Broad Institute at http site //software.broadinstitute.org/gsea/msigdb.GSEA| MSigDB. Accessed 19 Jun. 2017. Microarray data has been deposited in the National Center for Biotechnology Information Gene Expression Omnibus (GEO) (GSE109681). To identify potential druggable pathways active in PCa that could be exploited for combination therapy with VTP, we analyzed the transcriptome of LNCaP-AR xenograft tumors following acute response to VTP exposure. […]

CD31 = CD31 IHC staining of tumors (vessel quantification); type: in vivo, mice
Protocol: as §1, with “9.0.” for “9.0. AR staining with anti-AR antibody (at 0.66 μg/ml, Abcam, Cambridge, Mass.) and TUNEL staining for cell death with terminal deoxynucleotidyl transferase dUTP nick-end labeling (Roche Diagnostics, Indianapolis, Ind.) was performed using Discovery XT processor (Ventana Medical Systems, Inc., Tucson, Ariz.) at the Molecular Cytology core facility. IHC staining for CD31 and Ki67 markers was performed on FFPE sections at the Laboratory of Comparative Pathology on a Leica Bond RX automated stainer (Leica Biosystems, Buffalo Grove, Ill.).”
as §2

Row | SMILES | fold changes of serum tPSA (total PSA (tPSA)) | patients negative for cancer in follow up biopsies (low-risk, localized PCa; 6 months after prostate hemiablation, low-risk localized PCa) | HR of disease progression versus active surveillance (low-risk, localized PCa; at 24 months, 95% CI 0.24-0.46, p<0.0001) | disease progression (low-risk, localized PCa; at 24 months, active surveillance 58%) | patients free of clinically significant cancer in the treated lobes (low-risk, localized PCa; median follow-up of 68 months) | treated patients who avoided a need for subsequent radical therapy (low-risk, localized PCa; median follow-up of 68 months) | TUNEL staining (cell death) (LNCaP-AR tumors) | gene sets related to hypoxia, HIF1A, and VEGFR pathways (GSEA) ([1]; three to six hours post-VTP treatment) | AR signaling gene sets (GSEA) ([1]; three to six hours post-VTP, vs control mice) | number of vessels in tumors by CD31 image analysis (CD31; FIG. 6A, versus control group) | decrease in CD31 staining area compared to controls (CD31; degarelix-treated n=11 vs control n=12, p<0.05 (FIG. 6B)) | Ki67 signal (tumor proliferation) (LNCaP-AR tumors; day 7 post-VTP, p<0.05 vs controls (FIG. 5C))
1 | CCC1c2cc3[n-]c(c(CC(=O)OC)c4nc(cc5[n-]c(cc(n2)C1C)c(C(C)=O)c5C)C(C)C4CCC(=O)[O-])c(C(=O)NCCS(=O)(=O)[O-])c3C.[K+].[K+].[Pd+2] (centres unmarked) [WST11/VTP, Palladium 3^1-oxo-15-methoxycarbonylmethyl-rhodobacteriochlorin 13^1-(2-sulfoethyl) amide dipotassium salt] | declined | 80.6% | 0.34 | 28% | 82% | 76% | partial cell death characterized by large foci of TUNEL staining | statistically significant enrichments | up-regulated |  |  | 
2 | CC(=O)N[C@H](Cc1ccc2ccccc2c1)C(=O)N[C@H](Cc1ccc(Cl)cc1)C(=O)N[C@H](Cc1cccnc1)C(=O)N[C@@H](CO)C(=O)N[C@@H](Cc1ccc(NC(=O)[C@@H]2CC(=O)NC(=O)N2)cc1)C(=O)N[C@H](Cc1ccc(NC(N)=O)cc1)C(=O)N[C@@H](CC(C)C)C(=O)N[C@@H](CCCCNC(C)C)C(=O)N1CCC[C@H]1C(=O)N[C@H](C)C(N)=O [degarelix] (Ac-[d2Nal][dPhe(4-Cl)][d3Pal]S[Phe(4-NH2)](Dihydroorotyl(S))[dPhe(4-NHCONH2)]L[Lys(iPr)]P[dA]-NH2) | declined |  |  |  |  |  | little TUNEL staining |  |  | appear to have fewer vessels | 38% | reduced Ki67 signal compared to controls
